Laboratory results reported in patent publication US20250332138A1, “PHARMACEUTICAL COMPOSITION FOR PREVENTING OR TREATING MENTAL DISORDER” (Vivozon, Inc., priority 2022, published 2025).
pIC50: −log10 of the molar value.

Assays:
[1] = test system: neurons in the ventral tegmental area; details: cited from earlier work
male Sprague-Dawley rats = assay: Acquisition of morphine intravenous self-administration (prevention of drug addiction); format: in vivo, rat; details: 8 days, vs solvent control
Method: The experimental animals and the experimental methods for intravenous self-administration were performed in a similar manner to Example 1, and Test Compounds A and C were used as the test compounds.
To investigate the preventive effect of the test compounds on morphine addiction, rats recovering from surgery were subjected to morphine intravenous self-administration (IVSA) for eight (8) consecutive days, with 2-hours sessions each day, using a fixed ratio of 1 (FR1) (0.1 mg/kg/infusion, 0.1 mL delivered within 4 seconds). Test compounds A and C were dissolved in water containing 0.5% HPMC (hydroxypropyl methylcellulose) and 1% Tween 80, and administered orally at doses of 5 mg/kg and 100 mg/kg, respectively, 2 hours before morphine IVSA. The preventive effects on acquisition of morphine IVSA were measured, and the results are represented in FIGS. 4 and 5.

mGluR5 = molecular target: T1, mGluR5 (Homo sapiens, UniProt P41594); assay: Fluorescence-based Ca2+ mobilization assay; details: HEK293 cell line overexpressing mGluR5; L-glutamate at EC80; Ca2+ level, FLIPR
T1 construct: expressed in transfected cells; host or cells: HEK293
Method: In order to measure the activity on the mGluR5, an experiment was carried out to check the change in the intracellular Ca^2+ level using the HEK293 cell line permenantly overexpressing the mGluR5. The cells in the cell culture medium were aliquoted into a 384-well plate coated with poly-D-lysine and cultured in a 37° C. incubator supplied with 5% CO2. The next day, the medium was removed and a dye loading buffer—in which a reagent capable of measuring Ca^2+ was dissolved—was added, and then incubated at 37° C. for 60 minutes. The test compounds were dissolved in 100% DMSO at a final concentration of 10 mM to make a stock solution. The starting concentration of 10 μM was prepared from the stock solution, followed by serial dilutions to prepare working solutions (test compound working solutions). The test compound working solutions were added to the cells that were incubated in the dye loading buffer, which were maintained for 30 minutes at room temperature in a light-shielding state before measurement. The Ca^2+ level change induced by L-glutamate at EC80 concentration was measured for 2 minutes using FLIPR Tetra (MDS Analytical Technologies). The fluorescent Ca^2+ signal values in the presence of the test compounds were normalized to the fluorescent singal elicited by EC80 concentration of L-glutamate as 100% and that elicited by vehicle as 0% to estimate % inhibition of the test compounds. The efficacy of the test compounds was calculated as IC50 values and represented in Table 2. (+: 500-1,000 nM, ++: 100-500 nM, +++: less than 100 nM).

human 5-HT2A receptor = molecular target: T2, human 5-HT2A receptor (Homo sapiens, UniProt P28223); assay: HTRF-based IP1 accumulation assay; details: HEK293 cell line overexpressing human 5-HT2A receptor; serotonin at EC80; IP1 production; read-out: Human 5-HT2AR (IC50)
T2 construct: expressed in transfected cells; host or cells: HEK293
Method: The 5-HT2A receptor antagonistic effect of the test compounds was confirmed by measuring the production amount of IP1 using the HEK293 cell line permanently overexpressing the human 5-HT2A receptor. The test compounds were dissolved in 100% DMSO to a final concentration of 10 mM. The starting concentration of 10 μM was prepared from the stock solution, followed by serial dilutions to prepare working solutions in a buffer containing lithium chloride (LiCl). The cells and compounds prepared in the test buffer were placed in a 96-well plate and incubated at room temperature for 10 minutes. Serotonin of EC80 concentration was added, followed by incubation at 37° C. for 30 minutes in a light-shielding state. To measure IP1 accumulation in cells, IP1-d2 acceptor and IP1-Cryptate donor—which are HTRF-based substances for fluorescence signals—were added and incubated for 1 hour at room temperature in a light-shielded state. The fluorescent emission signals of acceptor and donor were detected, and HTRF ratio values were substracted by mean value of serotonin control. The percentage of activation was calculated by normalization of the serotonin control (0%) and IP1 control (100%). The IC50 values of the test compounds are represented in Table 2. (+: 500-1,000 nM, ++: 100-500 nM, +++: less than 100 nM).

rat = rat forced swim test; cited from earlier work
cocaine-addicted rats = details: cited from earlier work
[2] = test system: patients with cocaine use disorder; details: 68 patients with cocaine use disorder; cited from earlier work
mouse = mouse tail suspension test; cited from earlier work
test animals [3] = details: injected into the amygdala; cited from earlier work
test animals [4] = details: injected into the amygdala; cited from earlier work; remark: listed apart in the source
amygdala = details: cited from earlier work

T2 sequence (P28223 whole entry): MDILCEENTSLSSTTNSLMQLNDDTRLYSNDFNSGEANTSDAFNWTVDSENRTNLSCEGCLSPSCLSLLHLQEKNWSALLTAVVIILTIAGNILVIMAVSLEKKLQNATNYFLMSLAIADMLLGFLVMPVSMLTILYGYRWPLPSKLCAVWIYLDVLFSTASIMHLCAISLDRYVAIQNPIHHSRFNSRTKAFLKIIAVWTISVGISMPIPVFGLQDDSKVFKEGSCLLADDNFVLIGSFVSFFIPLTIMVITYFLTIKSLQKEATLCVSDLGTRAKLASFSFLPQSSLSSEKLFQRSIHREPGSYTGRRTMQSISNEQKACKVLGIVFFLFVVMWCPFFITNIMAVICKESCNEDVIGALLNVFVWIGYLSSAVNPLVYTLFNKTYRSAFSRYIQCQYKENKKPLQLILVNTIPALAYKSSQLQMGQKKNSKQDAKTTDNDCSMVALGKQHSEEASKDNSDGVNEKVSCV
T1 sequence (P41594 21-1212): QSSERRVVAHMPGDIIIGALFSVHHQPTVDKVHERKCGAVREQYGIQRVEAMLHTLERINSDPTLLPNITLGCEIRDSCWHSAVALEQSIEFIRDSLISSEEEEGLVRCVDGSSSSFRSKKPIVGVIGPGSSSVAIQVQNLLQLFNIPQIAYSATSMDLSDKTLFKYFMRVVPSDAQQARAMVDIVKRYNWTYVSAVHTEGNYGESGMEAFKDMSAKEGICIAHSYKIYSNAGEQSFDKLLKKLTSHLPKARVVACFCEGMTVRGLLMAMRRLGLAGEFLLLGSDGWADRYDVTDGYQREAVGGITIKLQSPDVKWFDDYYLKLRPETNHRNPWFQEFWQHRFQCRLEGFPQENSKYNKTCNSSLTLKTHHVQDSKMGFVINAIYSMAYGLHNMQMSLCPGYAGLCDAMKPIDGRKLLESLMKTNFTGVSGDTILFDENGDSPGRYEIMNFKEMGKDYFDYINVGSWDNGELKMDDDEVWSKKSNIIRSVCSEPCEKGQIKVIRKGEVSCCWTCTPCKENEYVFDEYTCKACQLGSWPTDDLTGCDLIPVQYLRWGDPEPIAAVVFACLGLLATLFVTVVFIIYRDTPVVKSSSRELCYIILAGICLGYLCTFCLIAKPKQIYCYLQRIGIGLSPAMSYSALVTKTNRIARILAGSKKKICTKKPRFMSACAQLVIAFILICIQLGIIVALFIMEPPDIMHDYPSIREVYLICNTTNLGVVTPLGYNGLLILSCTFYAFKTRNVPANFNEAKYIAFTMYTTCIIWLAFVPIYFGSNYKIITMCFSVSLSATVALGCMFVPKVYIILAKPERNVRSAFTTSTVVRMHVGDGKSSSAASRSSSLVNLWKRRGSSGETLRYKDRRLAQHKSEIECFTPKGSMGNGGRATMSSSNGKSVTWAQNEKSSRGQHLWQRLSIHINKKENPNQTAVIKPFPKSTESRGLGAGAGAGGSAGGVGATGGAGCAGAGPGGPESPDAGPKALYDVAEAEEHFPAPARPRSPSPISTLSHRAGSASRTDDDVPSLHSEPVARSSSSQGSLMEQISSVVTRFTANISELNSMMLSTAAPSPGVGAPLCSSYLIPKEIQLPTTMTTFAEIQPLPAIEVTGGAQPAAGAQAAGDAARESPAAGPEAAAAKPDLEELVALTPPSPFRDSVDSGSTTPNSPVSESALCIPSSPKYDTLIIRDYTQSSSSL

Compound	pIC50 (mGluR5)	pIC50 (human 5-HT2A receptor)	also measured
Cc1nc2sccn2c(=O)c1CCN1CCC(=C(c2ccc(F)cc2)c2ccc(F)cc2)CC1 [ritanserin]			dopamine secretion [1]: inhibited
O=C(NCC1CCOCC1)c1ccc(C#Cc2ccccc2F)cc1 [Compound 1, 4-((2-fluorophenyl)ethynyl)-N-((tetrahydro-2H-pyran-4-yl)methyl)benzamide]			number of injections (acquisition of morphine self-administration) (male Sprague-Dawley rats; 100 mg/kg orally 2 hours before morphine IVSA, FIG. 5): significantly lower
CC1(CNC(=O)c2ccc(C#Cc3ccccc3F)cc2)COC1 [Compound 6, 4-((2-fluorophenyl)ethynyl)-N-((3-methyloxetan-3-yl)methyl)benzamide]			number of injections (acquisition of morphine self-administration) (male Sprague-Dawley rats; 5 mg/kg orally 2 hours before morphine IVSA, FIG. 4): significantly lower
CC1(CNC(=O)c2ccc(C#Cc3ccc(F)cc3F)cc2)CCOCC1 [Compound 24, 4-((2,4-difluorophenyl)ethynyl)-N-((4-methyltetrahydro-2H-pyran-4-yl)methyl)benzamide]	> 7.00	6.30 to 7.00	
CC1(O)CC(CNC(=O)c2ccc(C#Cc3ccccc3F)cc2)C1 (stereo not drawn) [Compound 12, 4-((2-fluorophenyl)ethynyl)-N-(((1s,3s)-3-hydroxy-3-methylcyclobutyl)methyl)benzamide]	> 7.00	6.30 to 7.00	
Cc1nc(C#Cc2cccnc2)cs1 [MTEP, 3-[(2-methyl-1,3-thiazol-4-yl)ethynyl]pyridine]			immobility time (rat): reducing immobility time
O=C(c1ccc(F)cc1)C1CCN(CCn2c(=O)[nH]c3ccccc3c2=O)CC1 [ketanserin]			cocaine-induced increase in dopamine ([1]; pretreatment): suppressed; self-administration restored by signal stimulation (cocaine-addicted rats): reduced
COC(=O)N1CC[C@@H]2[C@H]1CCC[C@@]2(O)C#Cc1cccc(C)c1 [mavoglurant]			clinical efficacy [2]: confirmed
O=C(NCC1(O)CCCCC1)c1ccc(C#Cc2ccc(F)cc2)cc1 [Compound 26, 4-((4-fluorophenyl)ethynyl)-N-((1-hydroxycyclohexyl)methyl)benzamide]	> 7.00	6.30 to 7.00	
O=C(NC[C@H]1CCOC1)c1ccc(C#Cc2ccc(F)cc2F)cc1 [Compound 18, (R)-4-((2,4-difluorophenyl)ethynyl)-N-((tetrahydrofuran-3-yl)methyl)benzamide]	6.30 to 7.00		
COc1cccc([C@H](O)C2CCN(CCc3ccc(F)cc3)CC2)c1OC [Compound M100907]			dopamine secretion [1]: inhibited
O=C(NCC1CCC1)c1ccc(C#Cc2ccc(F)cc2F)cc1 [Compound 30, N-(cyclobutylmethyl)-4-((2,4-difluorophenyl)ethynyl)benzamide]	6.30 to 7.00	6.30 to 7.00	
[2H]C(NC(=O)c1ccc(C#Cc2ccccc2F)cc1)C1(C)COC1 (stereo not drawn) [Compound 16, 4-((2-fluorophenyl)ethynyl)-N-((3-methyloxetan-3-yl)methyl-d)benzamide]		6.30 to 7.00	
Cc1cccc(C#Cc2ccccc2)n1 [MPEP]			immobility time (mouse): decreased immobility time in a dose-dependent manner; time the test animals spend in the bright area (test animals [3]): increased; number of entries into the open arm (test animals [4]): increased; time the test animals spend in the open arm (test animals [4]): increased; formation of long-term potentiation (LTP) in the amygdala (amygdala): inhibiting
O=C(NCC1(O)CCC1)c1ccc(C#Cc2ccc(F)cc2F)cc1 [Compound 29, 4-((2,4-difluorophenyl)ethynyl)-N-((1-hydroxycyclobutyl)methyl)benzamide]	6.30 to 7.00	> 7.00	
O=C(NCC1(O)CCCCC1)c1ccc(C#Cc2ccc(F)cc2F)cc1 [Compound 28, 4-((2,4-difluorophenyl)ethynyl)-N-((1-hydroxycyclohexyl)methyl)benzamide]	6.00 to 6.30	6.30 to 7.00	
COc1cc(CC(C)N)c(OC)cc1I (stereo not drawn) [DOI, 1-[2,5-dimethoxy-4-iodophenyl]-2-aminopropane]			dopamine secretion [1]: promoted dopamine secretion
O=C(NCCC1CCOCC1)c1ccc(C#Cc2ccc(F)cc2F)cc1 [Compound 25, 4-((2,4-difluorophenyl)ethynyl)-N-(2-(tetrahydro-2H-pyran-4-yl)ethyl)benzamide]	6.30 to 7.00	> 7.00	
O=C(NC[C@@H]1CCOC1)c1ccc(C#Cc2ccc(F)cc2F)cc1 [Compound 19, (S)-4-((2,4-difluorophenyl)ethynyl)-N-((tetrahydrofuran-3-yl)methyl)benzamide]	6.30 to 7.00		
O=C(NCC1(O)CCC1)c1ccc(C#Cc2ccc(F)cc2)cc1 [Compound 27, 4-((4-fluorophenyl)ethynyl)-N-((1-hydroxycyclobutyl)methyl)benzamide]	> 7.00	> 7.00	
